Source: PMC9226319, “Peripherally restricted transthyretin-based delivery system for probes and therapeutics avoiding opioid-related side effects” (Nature Communications, 2022)
Values joined by “and” are separate entries in the source; they are usually repeats but may differ in a detail not shown here. Equal values may be shown once. “Also recorded” adds a separate entry of the source. Read-outs that look alike come from different tables or passages of the source.

Key:
[1] = Serum stability assay of AG10-L2-Nal, mouse serum; type: in vitro ADME; settings: 100 µM
Experimental: (§1) AG10-L2-Nal (100 μM) was incubated in sera, and the concentration remaining in respective media was determined at 0 and 48 h using HPLC. Bar graphs represent the mean of % compound remaining ± s.d. […] The plasma, brain tissue, and CSF were collected at 30 min after dosing. The ratio of the brain (ng/g) versus plasma concentration (ng/mL) is expressed as the percentage brain to plasma ratio. The ratio of the CSF (ng/mL) versus plasma concentration (ng/mL) is expressed as the percentage CSF to plasma ratio. Bar graphs show the respective mean (±s.d.) (n = 3 for each group). […] The concentration of the test compounds in plasma was determined at different time points and expressed as means ± s.d. of three biological replicates. Source data are provided as a Source Data file. […]
(§2) (Taiwan). The experimental procedure was performed as reported12. […]
(§3) Serum stability assay of AG10-L2-Nal. […] 100 μL samples were analyzed at 0 h, 24 h, and 48 h time intervals. […] The supernatant was analyzed using Waters™ XBridge C18 column (4.6x250 mm, 5μm) on Waters e2695 separations module HPLC system connected to a Waters 2998 photodiode array detector operating between the UV ranges of 200-400 nm. […]

[2] = rat; for plasma concentration: SC 16 µmol/kg, individual animals
purified human TTR = purified human TTR (Homo sapiens, UniProt P02766); experiment: Fluorescence polarization (FP) binding assay, ligands to TTR in buffer
[3] = molecular target: human mu-opioid receptors (Homo sapiens, UniProt P35372); experiment: biochemical; type: biochemical; parameters: host or cells: CHO-K1 (Chinese hamster ovary), membrane preparation
Sequence of human mu-opioid receptors (P35372 whole entry): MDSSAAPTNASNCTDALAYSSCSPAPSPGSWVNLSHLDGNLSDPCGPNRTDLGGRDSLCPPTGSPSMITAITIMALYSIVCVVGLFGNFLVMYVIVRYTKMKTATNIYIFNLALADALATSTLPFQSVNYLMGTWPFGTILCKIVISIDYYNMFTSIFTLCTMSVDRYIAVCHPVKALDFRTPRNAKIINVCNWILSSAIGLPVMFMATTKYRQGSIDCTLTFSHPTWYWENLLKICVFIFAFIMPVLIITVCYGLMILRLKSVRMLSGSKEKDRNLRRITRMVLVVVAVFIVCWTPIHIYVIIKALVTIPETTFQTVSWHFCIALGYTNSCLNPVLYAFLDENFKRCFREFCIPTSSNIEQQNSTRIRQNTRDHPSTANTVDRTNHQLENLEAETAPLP

male Sprague-Dawley rats [4] = experiment: Gastrointestinal (GI) transit (charcoal meal) assays; type: in vivo, rat; settings: rat, in vivo
in vivo [5] = settings: male, Sprague Dawley, rat, sc
[6] = molecular target: T1, kappa opioid receptor (rat) (Rattus norvegicus, UniProt P34975); experiment: Rat kappa-opioid receptor (agonist radioligand [3H] U 69593) binding assay; settings: for % Inhibition of Control Specific Binding: kappa-opioid receptor binding, replicates 1st/2nd
T1 construct: Eurofins Cerep (France)
T1 sequence (P34975 whole entry): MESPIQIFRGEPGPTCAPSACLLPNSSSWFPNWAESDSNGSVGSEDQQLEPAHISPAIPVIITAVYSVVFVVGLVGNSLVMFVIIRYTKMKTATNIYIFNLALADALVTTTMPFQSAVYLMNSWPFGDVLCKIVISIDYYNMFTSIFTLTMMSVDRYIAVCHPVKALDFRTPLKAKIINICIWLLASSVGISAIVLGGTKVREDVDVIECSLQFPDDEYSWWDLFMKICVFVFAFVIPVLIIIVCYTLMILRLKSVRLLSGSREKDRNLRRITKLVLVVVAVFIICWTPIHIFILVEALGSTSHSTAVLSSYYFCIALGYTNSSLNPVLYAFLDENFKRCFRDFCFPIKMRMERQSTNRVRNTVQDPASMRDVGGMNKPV

[7] = Serum stability assay of AG10-L2-Nal, human serum; type: in vitro ADME; settings: 100 µM
Experimental: as §1, §2, §3

male Sprague-Dawley rats [8] = settings: rat, in vivo
in vitro = settings: human, % Cell viability, replicates
holo-RBP-TTR interaction = holo-RBP-TTR interaction (Homo sapiens, UniProt P02766); experiment: Effect on holo-RBP-TTR interaction in human serum (cross-linking, Western blot)
[9] = Long-term stability assay of AG10-L2-Nal in PBS buffer; type: physicochemical; settings: 100 µM, 37 °C, analysed weekly for four weeks
in vivo [10] = settings: male, Sprague Dawley, rat, iv

C=CCN1CC[C@]23c4c5ccc(O)c4O[C@H]2[C@@H](OCc2cn(CCNCCCCCCOc4cc(OCCCc6c(C)n[nH]c6C)cc(C(=O)O)c4)nn2)CC[C@@]3(O)[C@H]1C5 [AG10-L2-Nal]
% compound remaining in mouse serum ([1]; 0 h, replicates): 98.29% and 100.51% and 101.20%
% compound remaining in mouse serum ([1]; 37 °C, 48 h, table replicates): 100% and 99.98% and 100.20% and 102.73%
plasma concentration ([2]; 0.03 h): 1290 nM and 1240 nM and 552 nM
plasma concentration ([2]; 0.25 h): 5340 nM and 6840 nM
plasma concentration ([2]; 0.5 h): 3960 nM and 4020 nM
plasma concentration ([2]; 0.75 h): 3620 nM and 2900 nM
plasma concentration ([2]; 1 h): 3480 nM and 3260 nM
plasma concentration ([2]; 2 h): 1350 nM and 1760 nM
plasma concentration ([2]; 4 h): 1120 nM and 1540 nM
plasma concentration ([2]; 6 h): 623 nM and 938 nM
plasma concentration ([2]; 8 h): 699 nM and 1120 nM
plasma concentration ([2]; 12 h): 166 nM and 200 nM and 516 nM
plasma concentration ([2]; 24 h): 49.7 nM and 31.1 nM
k ([2]; single SC dose 16 µmol/kg): 0.20 ± 0.04 h⁻¹
Kd (purified human TTR): 333 nM
% Fluorescence polarization (mean) (purified human TTR; log [nM] inhibitor 0.990): 100.000%
% Fluorescence polarization (mean) (purified human TTR; log [nM] inhibitor 1.291): 106.646%
% Fluorescence polarization (mean) (purified human TTR; log [nM] inhibitor 1.592): 105.531%
% Fluorescence polarization (mean) (purified human TTR; log [nM] inhibitor 1.893): 103.770%
% Fluorescence polarization (mean) (purified human TTR; log [nM] inhibitor 2.194): 97.021%
% Fluorescence polarization (mean) (purified human TTR; log [nM] inhibitor 2.495): 90.708%
% Fluorescence polarization (mean) (purified human TTR; log [nM] inhibitor 2.796): 79.479%
% Fluorescence polarization (mean) (purified human TTR; log [nM] inhibitor 3.097): 54.083%
% Fluorescence polarization (mean) (purified human TTR; log [nM] inhibitor 3.398): 38.835%
% Fluorescence polarization (mean) (purified human TTR; log [nM] inhibitor 3.699): 31.550%
% Fluorescence polarization (mean) (purified human TTR; log [nM] inhibitor 4.000): 21.649%
% Fluorescence polarization (mean) (purified human TTR; log [nM] inhibitor […]): 0.000%
IC50 [3]: 7.5 nM
Kb [3]: 0.81 nM
agonism relative to DAMGO [3]: 2%
fold increase of morphine EC50 [3]: 950 fold
fold more potent than naloxegol in functional assay [3]: 10 fold
GI transit 2.5h as % of saline group (male Sprague-Dawley rats [4]): 45.3% and 46.0% and 49.8% and 55.5% and 53.6% and 48.3%
reversal of OIC in the presence of AG10 (male Sprague-Dawley rats [4]): no improvement in the OIC
GI transit as % of vehicle group, compound alone (male Sprague-Dawley rats [4]; sc): 95.27% and 87.87% and 102.14% and 105.69% and 102.69%
AUC(0-inf) (in vivo [5]; 16 umol/kg): 17.6 ± 2.54 µM·h
CL/F (in vivo [5]; 16 umol/kg): 15.3 mL/min/kg
Vd/F (in vivo [5]; 16 umol/kg): 4.89 ± 1.83 L/kg
half-life (in vivo [5]; 16 umol/kg): 3.62 ± 0.76 h
concentration at 0.25 h (in vivo [5]; 16 µmol/kg, plasma concentration, SC 16 µmol/kg, 0.25 h, individual animals): 7560 nM
concentration at 0.5 h (in vivo [5]; 16 µmol/kg, plasma concentration, SC 16 µmol/kg, 0.5 h, individual animals): 4680 nM
concentration at 0.75 h (in vivo [5]; 16 µmol/kg, plasma concentration, SC 16 µmol/kg, 0.75 h, individual animals): 4580 nM
concentration at 1 h (in vivo [5]; 16 µmol/kg, plasma concentration, SC 16 µmol/kg, 1 h, individual animals): 4240 nM
concentration at 2 h (in vivo [5]; 16 µmol/kg, plasma concentration, SC 16 µmol/kg, 2 h, individual animals): 2370 nM
concentration at 4 h (in vivo [5]; 16 µmol/kg, plasma concentration, SC 16 µmol/kg, 4 h, individual animals): 1470 nM
concentration at 6 h (in vivo [5]; 16 µmol/kg, plasma concentration, SC 16 µmol/kg, 6 h, individual animals): 1050 nM
concentration at 8 h (in vivo [5]; 16 µmol/kg, plasma concentration, SC 16 µmol/kg, 8 h, individual animals): 727 nM
concentration at 24 h (in vivo [5]; 16 µmol/kg, plasma concentration, SC 16 µmol/kg, 24 h, individual animals): 40.6 nM
Ki ([6]; [3H] U 69593 displacement, read-out: binding affinity to kappa-opioid receptor (Ki)): 0.12 nM
% Inhibition of Control Specific Binding ([6]; 1.0E-07 M): 98.2% and 98.6%
% Inhibition of Control Specific Binding ([6]; 1.0E-08 M): 96.0%
% Inhibition of Control Specific Binding ([6]; 1.0E-09 M): 83.2% and 82.8%
% Inhibition of Control Specific Binding ([6]; 1.0E-10 M): 41.5% and 28.1%
% Inhibition of Control Specific Binding ([6]; 5.0E-08 M): 98.3% and 97.6%
% compound remaining in human serum ([7]; 0 h, replicates): 101.76% and 98.77% and 99.47%
% compound remaining in human serum ([7]; 37 °C, 48 h, table replicates): 100% and 100.03% and 100.96% and 96.87%
plasma concentration (male Sprague-Dawley rats [8]; male, Sprague-Dawley): 7600 ± 500 nM
Hot plate latency (male Sprague-Dawley rats [8]): 60 s
hot plate latency (male Sprague-Dawley rats [8]): significant analgesia
reversal of morphine-induced analgesia in the presence of AG10 (male Sprague-Dawley rats [8]): no reversal of analgesia
hot plate latency (male Sprague-Dawley rats [8]; iv): 60 s
viability at 72 h, 10 µM (in vitro; 10 μM): 102%
viability at 72 h, 100 µM (in vitro; 100 μM): 112%
interference with holo-RBP binding to TTR (holo-RBP-TTR interaction; 20 µM in human serum, 2 h 37 °C): does not interfere with
%holo RBP binding to TTR (holo-RBP-TTR interaction; human serum, quantified from gel image, replicates (Supp Fig.14b)): 7% and 8.1% and 7.9%
chemical stability in PBS buffer [9]: stable in buffer for a least one month; also recorded: chemically stable in phosphate buffer saline for at least one month at 37 °C
AUC(0-inf) (in vivo [10]; 4.84 umol/kg): 16.9 ± 1.09 µM·h
Vd (in vivo [10]; 4.84 umol/kg): 0.12 ± 0.02 L/kg
clearance (in vivo [10]; 4.84 umol/kg): 4.83 mL/min/kg
half-life (in vivo [10]; 4.84 umol/kg): 5.98 ± 0.81 h
concentration at 0.03 h (in vivo [10]; 4.84 µmol/kg, plasma concentration, IV 4.84 µmol/kg, 0.03 h, individual animals): 48800 nM
concentration at 1 h (in vivo [10]; 4.84 µmol/kg, plasma concentration, IV 4.84 µmol/kg, 1 h, individual animals): 295 nM
concentration at 2 h (in vivo [10]; 4.84 µmol/kg, plasma concentration, IV 4.84 µmol/kg, 2 h, individual animals): 234 nM
concentration at 12 h (in vivo [10]; 4.84 µmol/kg, plasma concentration, IV 4.84 µmol/kg, 12 h, individual animals): 9.6 nM
